Reference: patent publication US20200346047A1, “METHOD AND KIT FOR HOME CONTROLLED OVARIAN STIMULATION FOR IN VITRO FERTILIZATION” (priority 2019, published 2020)
“And” between values parts separate entries of the source, which are not always exact repeats. Identical values can stand only once. Square brackets hold non-standard residues; d marks the D form. Peptide text beside a SMILES is read from it. d(hArg(Et2)) = CCN=C(NCC)NCCCC[C@@H](N)C(=O)O; hArg(Et2) = CCN=C(NCC)NCCCC[C@H](N)C(=O)O; dPhe(4-Cl) = N[C@H](Cc1ccc(Cl)cc1)C(=O)O; d2Nal = N[C@H](Cc1ccc2ccccc2c1)C(=O)O; d3Pal = N[C@H](Cc1cccnc1)C(=O)O

Assays:
LH blood hormone level [1] = assay: LH blood level under conventional GnRH antagonist injection protocol (Example 1); assay type: in vivo, female patients
Protocol: Five female patients were treated with a GnRH antagonist protocol requiring injections of medications.
One patient, patient no. 1, was injected with 150 Units of FSH on days 3 to 12; half a syringe of 150 mcg/0.5 mL of ganirelix acetate on days 11 and 12; and 50 mg of clomiphene citrate on days 3 to 12; and 2.5 mg of letrozole on days 3 to 7. Luteinizing hormone (LH) blood level was 4.3 mIU/mL on day 10 and dropped to 2 mIU/mL on day 12.
A second patient, patient no. 2, was injected with 75 Units of FSH on days 4 to 12 and 150 Units on day 13; half a syringe of 150 mcg/0.5 mL of ganirelix acetate on days 11 to 13; 50 mg of clomiphene citrate on days 10 to 12, and 2.5 mg of letrozole on days 3 to 7. Luteinizing hormone (LH) blood level was 12.0 mIU/mL on day 11 and dropped to 6.3 mIU/mL on day 13.
Three patients, numbered 3 to 5, were injected with 75, 150 and 225 Units of FSH, respectively, on days 4 to 12 and one third a syringe of 150 mcg/0.5 mL of ganirelix acetate on days 11 to 13. Patient no. 3 received 50 mg of clomiphene citrate on days 4 to 12, and 2.5 mg of letrozole on days 4 to 8. Patient no. 4 received 100 mg of clomiphene citrate and 2.5 mg of letrozole on days 4 to 8, and 50 mg of clomiphene citrate on days 9 to 11. Patient no. 5 received no clomiphene citrate or letrozole. Luteinizing hormone (LH) blood level was 12.0, 18.0 and 14.6 mIU/mL, respectively, on day 10 and dropped to 4.9, 16.0 and 14.1 mIU/mL, respectively, on day 12.
Table 2 below provides a comparison of the efficacy of conventional Ganirelex/Cetrotide injectables treatment for IVF in the five representative patients from Example 1 with the home controlled ovarian hyperstimulation method described herein in the five representative patients from Example 2.

LH blood hormone level [2] = assay: LH blood level under home controlled ovarian hyperstimulation method with vaginal elagolix (Example 2); assay type: in vivo, female patients; conditions: lower dose of elagolix taken as a vaginal suppository instead of orally
Protocol: On day 9 of the menstrual cycle, the patient is directed to orally take 50 to 150 mg, preferably 100 mg, (one, two, or three 50 mg oral tablets) of clomiphene citrate and to either insert vaginally or take orally, depending on the patient's preference, a gonadotropin-releasing hormone (GnRH) antagonist such as elagolix (marketed as ORILISSA®), instead of the expensive injections of ganirelix acetate (GANIRELEX®) or cetrorelix acetate (marketed as CETROTIDE®) used routinely in conventional practices. A dose of 25 mg (⅛^th of a pill) up to 200 mg of elagolix (1 full pill), preferably 25 mg, will be used, with the dose being the same whether inserted vaginally or taken orally. Elagolix is a GnRH antagonist that is conventionally used in the treatment of pain associated with endometriosis in women, not for the treatment of infertility. By blocking the GnRH receptor, elagolix suppresses LH release by the pituitary gland and thus prevents LH surge. Ultimately, elagolix suppresses gonadal steroid production, thereby reducing circulating levels of sex hormones such as progesterone, estradiol, and testosterone. Elagolix is generally an oral medication (oral tablet), however in the present method, elagolix is a tablet taken mainly as a vaginal suppository, but may be taken orally based on the patient's preference. […]

| SMILES | LH blood hormone level AFTER medication intake (LH blood hormone level [1]; Example 1, one value per patient (patients 1-5), after ganirelix injections, listed as Conventional Ganielex/Cetrotide Injectables) | LH blood hormone level BEFORE medication intake (LH blood hormone level [1]; Example 1, one value per patient (patients 1-5), before ganirelix injections, listed as Conventional Ganielex/Cetrotide Injectables) | % Drop in blood LH hormone level (LH blood hormone level [1]; Example 1, one value per patient (patients 1-5), listed as Conventional Ganielex/Cetrotide Injectables) | Luteinizing hormone (LH) blood level (LH blood hormone level [1]; patient no. 1, day 10, half a syringe of 150 mcg/0.5 mL ganirelix acetate on days 11 and 12) | drop in LH blood hormone levels (LH blood hormone level [1]; patient no. 1, day 10 to day 12) | Luteinizing hormone (LH) blood level (LH blood hormone level [1]; patient no. 1, day 12, half a syringe of 150 mcg/0.5 mL ganirelix acetate on days 11 and 12) | Luteinizing hormone (LH) blood level (LH blood hormone level [1]; patient no. 2, day 11, half a syringe of 150 mcg/0.5 mL ganirelix acetate on days 11 to 13) | drop in LH blood hormone levels (LH blood hormone level [1]; patient no. 2, day 11 to day 13) | Luteinizing hormone (LH) blood level (LH blood hormone level [1]; patient no. 2, day 13, half a syringe of 150 mcg/0.5 mL ganirelix acetate on days 11 to 13) | Luteinizing hormone (LH) blood level (LH blood hormone level [1]; patient no. 3, day 10, one third a syringe of 150 mcg/0.5 mL ganirelix acetate on days 11 to 13) | drop in LH blood hormone levels (LH blood hormone level [1]; patient no. 3, day 10 to day 12) | Luteinizing hormone (LH) blood level (LH blood hormone level [1]; patient no. 3, day 12, one third a syringe of 150 mcg/0.5 mL ganirelix acetate on days 11 to 13) | Luteinizing hormone (LH) blood level (LH blood hormone level [1]; patient no. 4, day 10, one third a syringe of 150 mcg/0.5 mL ganirelix acetate on days 11 to 13) | drop in LH blood hormone levels (LH blood hormone level [1]; patient no. 4, day 10 to day 12) | Luteinizing hormone (LH) blood level (LH blood hormone level [1]; patient no. 4, day 12, one third a syringe of 150 mcg/0.5 mL ganirelix acetate on days 11 to 13) | Luteinizing hormone (LH) blood level (LH blood hormone level [1]; patient no. 5, day 10, one third a syringe of 150 mcg/0.5 mL ganirelix acetate on days 11 to 13, no clomiphene citrate or letrozole) | drop in LH blood hormone levels (LH blood hormone level [1]; patient no. 5, day 10 to day 12) | Luteinizing hormone (LH) blood level (LH blood hormone level [1]; patient no. 5, day 12, one third a syringe of 150 mcg/0.5 mL ganirelix acetate on days 11 to 13, no clomiphene citrate or letrozole) | effectiveness as GnRH antagonist in the patients (LH blood hormone level [2]) |
| --- | --- | --- | --- | --- | --- | --- | --- | --- | --- | --- | --- | --- | --- | --- | --- | --- | --- | --- | --- |
| CCN=C(NCC)NCCCC[C@H](NC(=O)[C@H](CC(C)C)NC(=O)[C@@H](CCCCNC(=NCC)NCC)NC(=O)[C@H](Cc1ccc(O)cc1)NC(=O)[C@H](CO)NC(=O)[C@@H](Cc1cccnc1)NC(=O)[C@@H](Cc1ccc(Cl)cc1)NC(=O)[C@@H](Cc1ccc2ccccc2c1)NC(C)=O)C(=O)N1CCC[C@H]1C(=O)N[C@H](C)C(N)=O [Ganirelex, ganirelix acetate] (Ac-[d2Nal][dPhe(4-Cl)][d3Pal]SY[d(hArg(Et2))]L[hArg(Et2)]P[dA]-NH2) | 2.0 mIU/mL and 6.3 mIU/mL and 4.9 mIU/mL and 16.0 mIU/mL | 4.3 mIU/mL and 12.0 mIU/mL (2×) and 18.0 mIU/mL | 3.4% | 4.3 mIU/mL | 53.5% | 2 mIU/mL | 12.0 mIU/mL | 47.5% | 6.3 mIU/mL | 12.0 mIU/mL | 59.25% | 4.9 mIU/mL | 18.0 mIU/mL | 11.1% | 16.0 mIU/mL | 14.6 mIU/mL | 3.4% | 14.1 mIU/mL |  |
| COc1cccc(-c2c(C)n(Cc3c(F)cccc3C(F)(F)F)c(=O)n(C[C@H](NCCCC(=O)O)c3ccccc3)c2=O)c1F [elagolix] |  |  |  |  |  |  |  |  |  |  |  |  |  |  |  |  |  |  | effective GnRH antagonist |
